Results as given in ChEMBL document CHEMBL5113532, “Design and Characterization of a Natural Arf-GEFs Inhibitor Prodrug CHNQD-01255 with Potent Anti-Hepatocellular Carcinoma Efficacy In Vivo” (J Med Chem, 2022).
In brackets after ≈: the same amount, converted by molar mass. One block for each molecule: values may come before it.

What was measured:
[1] = Solubility of the compound in saline/DMSO (95/5% V/V) at pH 7.4; assay type: physicochemical
[2] = Acute toxicity in po dosed ICR mouse assessed as maximum tolerated dose; assay type: organism-based; conditions: in vivo
[3] = Solubility of the compound in saline/DMSO/solutol HS-15 (85/5/10% V/V/V) at pH 7.4; assay type: physicochemical
[4] = Acute toxicity in ip dosed ICR mouse assessed as maximum tolerated dose; assay type: organism-based; conditions: in vivo
[5] = Solubility of the compound in 0.9% NaCl at pH 7.4; assay type: physicochemical
[6] = Half life in ICR mouse at 45 mg/kg, po measured after 0.083 to 12 hrs by UPLC-MS/MS analysis; assay type: ADME, organism-based; conditions: in vivo, time 0.083-12 hrs
[7] = Solubility of the compound in saline/PEG400 (80/20% V/V) at pH 7.4; assay type: physicochemical
[8] = Solubility of the compound in saline/solutol HS-15 (90/10% V/V) at pH 7.4; assay type: physicochemical
[9] = Oral bioavailability in ICR mouse at 45 mg/kg measured after 0.083 to 12 hrs by UPLC-MS/MS analysis; assay type: ADME, organism-based; conditions: in vivo, time 0.083-12 hrs
[10] = Clearance in ICR mouse at 10 mg/kg, iv measured after 0.083 to 12 hrs by UPLC-MS/MS analysis; assay type: ADME, organism-based; conditions: in vivo, time 0.083-12 hrs
[11] = MRT (0 to t) in ICR mouse at 10 mg/kg, iv measured after 0.083 to 12 hrs by UPLC-MS/MS analysis; assay type: ADME, organism-based; conditions: in vivo, time 0.083-12 hrs
[12] = Apparent volume of distribution in ICR mouse at 45 mg/kg, po measured after 0.083 to 12 hrs by UPLC-MS/MS analysis; assay type: ADME, organism-based; conditions: in vivo, time 0.083-12 hrs
[13] = Apparent volume of distribution in ICR mouse at 10 mg/kg, iv measured after 0.083 to 12 hrs by UPLC-MS/MS analysis; assay type: ADME, organism-based; conditions: in vivo, time 0.083-12 hrs, read-out: Vz
[14] = AUC(0 to t) in ICR mouse at 10 mg/kg, iv measured after 0.083 to 12 hrs by UPLC-MS/MS analysis; assay type: ADME, organism-based; design: time upper 12 hrs, dose 10 mg/kg, time lower 0.083 hrs, route iv; conditions: in vivo
[15] = Cmax in ICR mouse at 10 mg/kg, iv measured after 0.083 to 12 hrs by UPLC-MS/MS analysis; assay type: ADME, organism-based; design: time 0.083-12 hrs, dose 10 mg/kg, route iv; conditions: in vivo
[16] = Clearance in ICR mouse at 45 mg/kg, po measured after 0.083 to 12 hrs by UPLC-MS/MS analysis; assay type: ADME, organism-based; conditions: in vivo, time 0.083-12 hrs
[17] = MRT (0 to t) in ICR mouse at 45 mg/kg, po measured after 0.083 to 12 hrs by UPLC-MS/MS analysis; assay type: ADME, organism-based; conditions: in vivo, time 0.083-12 hrs
[18] = Solubility of the compound in saline/solutol HS-15 (95/5% V/V) at pH 7.4; assay type: physicochemical
[19] = AUC (0 to t) in ICR mouse at 45 mg/kg, po measured after 0.083 to 12 hrs by UPLC-MS/MS analysis; assay type: ADME, organism-based; design: dose 45 mg/kg, time upper 12 hrs, time lower 0.083 hrs, route po; conditions: in vivo
[20] = Half life in ICR mouse at 10 mg/kg, iv measured after 0.083 to 12 hrs by UPLC-MS/MS analysis; assay type: ADME, organism-based; conditions: in vivo, time 0.083-12 hrs
[21] = Solubility of the compound in saline/PEG400 (95/5% V/V) at pH 7.4; assay type: physicochemical
[22] = Cmax in ICR mouse at 45 mg/kg, po measured after 0.083 to 12 hrs by UPLC-MS/MS analysis; assay type: ADME, organism-based; design: dose 45 mg/kg, time upper 12 hrs, time lower 0.083 hrs, route po; conditions: in vivo
[23] = Solubility of the compound in PBS/DMSO (95/5% V/V) at pH 7.2 to 7.4; assay type: physicochemical
Bel-7402 = assay: Antiproliferative activity against human Bel-7402 cells by MTT assay; assay type: functional, cell-based
HepG2 = assay: Antiproliferative activity against human HepG2 cells by MTT assay; assay type: functional, cell-based

Structure (SMILES): C[C@H]1CCC/C=C/[C@@H]2C[C@H](O)C[C@H]2[C@H](O)/C=C/C(=O)O1 [BREFELDIN A]
solubility [1]: < 1000 µg/mL | MTD [2]: < 506 mg/kg | solubility [3]: 1000 µg/mL (≈ 3.57 mM) | MTD [4]: < 50 mg/kg | solubility [5]: < 1000 µg/mL | half-life [6]: 2.12 h | solubility [7]: < 1000 µg/mL | solubility [8]: < 1000 µg/mL | bioavailability [9]: 19% | clearance [10]: 26.3 mL/min/kg | MRT last [11]: 0.84 h | Vz [12]: 31.87132 L/kg | Vd [13]: 20.6 L/kg | AUC(0-t) [14]: 4840 ng·h/mL | Cmax [15]: 13200 ng/mL | CL/F [16]: 173 mL/min/kg | MRT last [17]: 1.4 h | solubility [18]: < 1000 µg/mL | AUC(0-t) [19]: 4130 ng·h/mL | half-life [20]: 9.05 h | solubility [21]: < 1000 µg/mL | Cmax [22]: 7140 ng/mL | solubility [23]: < 1000 µg/mL | IC50 (Bel-7402): 70 nM | IC50 (HepG2): 80 nM

Structure (SMILES): C[C@H]1CCC/C=C/[C@@H]2C[C@H](OC(=O)NCc3cccnc3)C[C@H]2[C@H](O)/C=C/C(=O)O1
IC50 (HepG2): > 1000 nM

Structure (SMILES): COC(=O)O[C@@H]1C[C@H]2[C@H](O)/C=C/C(=O)O[C@@H](C)CCC/C=C/[C@@H]2C1
IC50 (HepG2): > 1000 nM

Structure (SMILES): C[C@H]1CCC/C=C/[C@@H]2C[C@H](OC(=O)OCc3ccncc3)C[C@H]2[C@H](O)/C=C/C(=O)O1
IC50 (Bel-7402): > 1000 nM | IC50 (HepG2): > 1000 nM

Structure (SMILES): C[C@H]1CCC/C=C/[C@@H]2C[C@H](OC(=O)c3cncc(F)c3)C[C@H]2[C@H](O)/C=C/C(=O)O1
IC50 (HepG2): 680 nM

Structure (SMILES): C[C@H]1CCC/C=C/[C@@H]2C[C@H](OC(=O)NCCO)C[C@H]2[C@H](O)/C=C/C(=O)O1
IC50 (HepG2): > 1000 nM

Structure (SMILES): C[C@H]1CCC/C=C/[C@@H]2C[C@H](OC(=O)OCc3cnc4ccccc4c3)C[C@H]2[C@H](O)/C=C/C(=O)O1
IC50 (HepG2): > 1000 nM

Structure (SMILES): C[C@H]1CCC/C=C/[C@@H]2C[C@H](OC(=O)OCc3ccccn3)C[C@H]2[C@H](O)/C=C/C(=O)O1
IC50 (HepG2): > 1000 nM

Structure (SMILES): C[C@H]1CCC/C=C/[C@@H]2C[C@H](O)C[C@H]2[C@H](OC(=O)c2ccncc2)/C=C/C(=O)O1
IC50 (HepG2): 650 nM

Structure (SMILES): C[C@H]1CCC/C=C/[C@@H]2C[C@H](OC(=O)OCc3cccnc3)C[C@H]2[C@H](OC(=O)OCc2cccnc2)/C=C/C(=O)O1
IC50 (Bel-7402): 430 nM | IC50 (HepG2): > 1000 nM

Structure (SMILES): C[C@H]1CCC/C=C/[C@@H]2C[C@H](OC(=O)OCc3cncc(F)c3)C[C@H]2[C@H](O)/C=C/C(=O)O1
IC50 (HepG2): > 1000 nM

Structure (SMILES): C[C@H]1CCC/C=C/[C@@H]2C[C@H](OC(=O)c3ccccn3)C[C@H]2[C@H](OC(=O)c2ccccn2)/C=C/C(=O)O1
IC50 (HepG2): 340 nM

Structure (SMILES): COc1ccc(COC(=O)O[C@@H]2C[C@H]3[C@H](O)/C=C/C(=O)O[C@@H](C)CCC/C=C/[C@@H]3C2)cn1
IC50 (HepG2): > 1000 nM

Structure (SMILES): C[C@H]1CCC/C=C/[C@@H]2C[C@H](OC(=O)c3cccnc3)C[C@H]2[C@H](O)/C=C/C(=O)O1
solubility [1]: < 1000 µg/mL | solubility [3]: 3000 µg/mL (≈ 7.78 mM) | solubility [5]: < 1000 µg/mL | solubility [7]: < 1000 µg/mL | solubility [8]: < 1000 µg/mL | solubility [18]: < 1000 µg/mL | solubility [21]: < 1000 µg/mL | solubility [23]: < 1000 µg/mL | IC50 (Bel-7402): 390 nM | IC50 (HepG2): 950 nM

Structure (SMILES): C[C@H]1CCC/C=C/[C@@H]2C[C@H](OC(=O)Nc3ccccc3)C[C@H]2[C@H](O)/C=C/C(=O)O1
IC50 (HepG2): > 1000 nM

Structure (SMILES): C[C@H]1CCC/C=C/[C@@H]2C[C@H](OC(=O)OCCc3cccnc3)C[C@H]2[C@H](O)/C=C/C(=O)O1
IC50 (Bel-7402): > 1000 nM | IC50 (HepG2): 850 nM

Structure (SMILES): C[C@H]1CCC/C=C/[C@@H]2C[C@H](O)C[C@H]2[C@H](OC(=O)c2cccnc2)/C=C/C(=O)O1
IC50 (Bel-7402): 270 nM | IC50 (HepG2): > 1000 nM

Structure (SMILES): C[C@H]1CCC/C=C/[C@@H]2C[C@H](OC(=O)c3ccncc3)C[C@H]2[C@H](OC(=O)c2ccncc2)/C=C/C(=O)O1
IC50 (HepG2): > 1000 nM

Second part, the molecule after the results:

IC50 (Bel-7402): > 1000 nM | IC50 (HepG2): > 1000 nM
Structure (SMILES): C[C@H]1CCC/C=C/[C@@H]2C[C@H](OC(=O)CN(C)C)C[C@H]2[C@H](O)/C=C/C(=O)O1

IC50 (Bel-7402): > 1000 nM | IC50 (HepG2): > 1000 nM
Structure (SMILES): C[C@H]1CCC/C=C/[C@@H]2C[C@H](OC(=O)c3cccnc3)C[C@H]2[C@H](OC(=O)c2cccnc2)/C=C/C(=O)O1

IC50 (HepG2): 930 nM
Structure (SMILES): C[C@H]1CCC/C=C/[C@@H]2C[C@H](O)C[C@H]2[C@H](OC(=O)c2cncc(F)c2)/C=C/C(=O)O1

IC50 (Bel-7402): > 1000 nM | IC50 (HepG2): 390 nM
Structure (SMILES): COc1cccc2c1C(=O)c1c(O)c3c(c(O)c1C2=O)C[C@@](O)(C(=O)CO)C[C@@H]3O[C@H]1C[C@H](N)[C@H](O)[C@H](C)O1 [DOXORUBICIN]

IC50 (HepG2): > 1000 nM
Structure (SMILES): C[C@H]1CCC/C=C/[C@@H]2C[C@H](OC(=O)NCc3ccccc3)C[C@H]2[C@H](O)/C=C/C(=O)O1

IC50 (HepG2): > 1000 nM
Structure (SMILES): C[C@H]1CCC/C=C/[C@@H]2C[C@H](OC(=O)OCCS)C[C@H]2[C@H](O)/C=C/C(=O)O1

IC50 (HepG2): > 1000 nM
Structure (SMILES): Cc1cncc(C(=O)O[C@@H]2/C=C/C(=O)O[C@@H](C)CCC/C=C/[C@@H]3C[C@H](O)C[C@H]32)c1

IC50 (HepG2): > 1000 nM
Structure (SMILES): Cc1cncc(C(=O)O[C@@H]2C[C@H]3[C@H](O)/C=C/C(=O)O[C@@H](C)CCC/C=C/[C@@H]3C2)c1

IC50 (HepG2): > 1000 nM
Structure (SMILES): C[C@H]1CCC/C=C/[C@@H]2C[C@H](OC(=O)c3cncc(F)c3)C[C@H]2[C@H](OC(=O)c2cncc(F)c2)/C=C/C(=O)O1

IC50 (HepG2): 290 nM
Structure (SMILES): C[C@H]1CCC/C=C/[C@@H]2C[C@H](OC(=O)c3ccccn3)C[C@H]2[C@H](O)/C=C/C(=O)O1

IC50 (HepG2): 960 nM
Structure (SMILES): C[C@H]1CCC/C=C/[C@@H]2C[C@H](O)C[C@H]2[C@H](OC(=O)c2ccccn2)/C=C/C(=O)O1

IC50 (Bel-7402): 270 nM | IC50 (HepG2): > 1000 nM
Structure (SMILES): C[C@H]1CCC/C=C/[C@@H]2C[C@H](O)C[C@H]2[C@H](OC(=O)OCc2cccnc2)/C=C/C(=O)O1

IC50 (HepG2): > 1000 nM
Structure (SMILES): C[C@H]1CCC/C=C/[C@@H]2C[C@H](OC(=O)NCc3ccncc3)C[C@H]2[C@H](O)/C=C/C(=O)O1

IC50 (HepG2): 460 nM
Structure (SMILES): C[C@H]1CCC/C=C/[C@@H]2C[C@H](OC(=O)c3ccncc3)C[C@H]2[C@H](O)/C=C/C(=O)O1

IC50 (HepG2): > 1000 nM
Structure (SMILES): C[C@H]1CCC/C=C/[C@@H]2C[C@H](OC(=O)OCCSSCCO)C[C@H]2[C@H](O)/C=C/C(=O)O1
